Results taken from patent US5631246A, “Use of PAF” (The Canadian Red Cross Society, priority 1993, dated 1997).
Read-outs that look alike come from different tables or passages of the source.

How the values were obtained:
ECs = assay: Cytotoxicity to ECs by dye exclusion test; type: cell-based, human; conditions: BTP-dioxolane preincubation
Description: (§2) Media with or without thrombin (@5 units/mL) served as positive and negative controls respectively. ECs were incubated for 1, 10, 20 or 30 minutes and 1, 2, 4, 6 and 24 hours in the PAF and thrombin time course studies. The EC conditioned media were recovered, centrifuged to remove any cell debris, and then frozen at -80° C. for a maximum period of 4 weeks prior to analyses.

PAF receptor = PAF receptor (Homo sapiens, UniProt P25105); assay: Effect of PAF receptor antagonist on release of vWf from ECs; conditions: for % Inhibition of vWf release: 10 μM BTP-dioxolane
Chain of PAF receptor (P25105 whole entry): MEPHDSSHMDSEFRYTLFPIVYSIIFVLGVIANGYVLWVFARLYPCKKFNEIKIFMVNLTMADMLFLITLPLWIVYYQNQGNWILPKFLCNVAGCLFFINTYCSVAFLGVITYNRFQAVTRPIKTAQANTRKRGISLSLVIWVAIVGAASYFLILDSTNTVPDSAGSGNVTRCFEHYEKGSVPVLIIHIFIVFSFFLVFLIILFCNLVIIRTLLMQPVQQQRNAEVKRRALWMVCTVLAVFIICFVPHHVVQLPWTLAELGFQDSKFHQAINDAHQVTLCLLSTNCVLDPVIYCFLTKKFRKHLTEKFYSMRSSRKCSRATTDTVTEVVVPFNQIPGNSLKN
Description: as §2
(§3) Endothelial cells (ECs) were harvested from human umbilical cord vein as described by Jaffe et al. ((1973) Culture of Human Endothelial Cells Derived from Umbilical Veins: Identification by Morphologic and Immunologic Criteria, J. Clin. Invest. 52:2745-2756) and modified by Hashemi et al. (1990, supra). Endothelial cells were subcultured in 0.2% (w/v) gelatin-coated, 12-well Linbro™ polystyrene, tissue culture plates (Flow Laboratories, Mississauga, Ontario), then plated at a density of 1-2×10^4 /well and grown to confluence.
(§4) The standard consisted of a pool of plasma from 20 normal individuals previously determined to contain 1 unit of vWf per mL by the procedure of Zimmerman et al. (1977, J. Clin. Invest. 59:984-989). […] For some experiments, the maximum vWf that could be released was determined. Following incubation, the EC conditioned media were recovered and fresh media containing 0.05% (v/v) Tween 20 and 10 μM each of the protease inhibitors D-phenylalanyl-phenylalanyl-arginyl-chloromethyl ketone, D-phenylalanyl-propyl-arginyl-chloromethyl ketone and 1,5-Dansyl-glutamyl-glycyl-arginyl-chloromethyl ketone were added to the EC monolayers of each corresponding well. The cells were freeze-thawed three times and, to assure complete breakdown of the cell membranes as well as the Weibel-Palade bodies, disrupted in a glass homogenizer using a motor-driven teflon pestle. After centrifugation, total vWf concentration was determined in the supernatants.
The following procedure was followed.

monocytes [1] = assay: Cytokine secretion from monocytes (ELISA); type: cell-based, human; conditions: 100 ng DDAVP/mL, 30 min
From the text: Cytokines, IL-1β, IL-6, IL-8, TNF-α, GM-CSF, and G-CSF were quantitated by specific ELISA using human recombinant cytokines as standards. The Quantikine™ kits for measuring IL-1β, IL-6, IL-8, TNF-α and G-CSF were purchased from R & D Systems (Minneapolis, Minn.). The GM-CSF assay kit came from Genzyme Corp. (Boston, Mass.). The minimum detectable levels of cytokines were: 4.5 pg/mL (IL-1β), 3.5 pg/mL (IL-6), 4.7 pg/mL (IL-8), 4.8 pg/mL (TNF-α), 11.2 pg/mL (G-CSF) and 10.0 pg/mL (GM-CSF).

endothelial cells (ECs) [2] = assay: PGI2 release from ECs exposed to supernatants of DDAVP-treated monocytes; type: cell-based, human
Description: (§1) Prostaglandins E2, F2a, and I2 (assayed as 6 keto-PGF1a) were assayed using the iodinated or tritiated (for PGF2a) kits purchased from Amersham Canada (Oakville, Ontario). ATP and ADP were assayed using the adenosine-5'-triphosphate bioluminescent kit from Sigma (St. Louis, Mo.). Prior to assay, ADP present in standards or in samples was converted to ATP (Holmsen et al. (1966) Anal. Biochem. 17:456-473; (1972) Anal. Biochem. 46:489-501). Luminescence was measured using a Lumi-Aggregometer (Chrono-Log Corp., Havertown, Pa.).
If the data are expressed as a percentage increase in PGI2 released from ECs exposed to supernatants from DDAVP-treated compared to untreated monocytes, in order to control for variability in the basal response between the various monocyte and EC preparations, a 60% increase in PGI2 release was observed (P<0.05).

monocytes [3] = assay: PAF secretion from monocytes (RIA); type: cell-based, human
From the text: In addition, PAF was extracted from the monocyte supernatants and assayed using the following highly specific and sensitive radioimmunoassay. As the most predominant bioactive forms of PAF secreted by monocytes are the C16 and C18 alkyl moieties (Sugiura and Waku, (1987) Platelet-Activating Factor and Related Lipid Mediators, F. Snyder Ed. Plenum Press, N.Y. 55-85; Prescott et al. (1990) Proc. Natl. Acad. Sci. U.S.A. 81:3534-3538), PAF was quantitated using the highly specific and sensitive ^125 I-RIA kit manufactured by NEN Research Products (Du Pont Canada, Mississauga, Ontario, Canada) following extraction of the monocyte supernatants with 5 mL each of methanol and chloroform and 3.5 mL of water per mL of sample. The recovered chloroform layers, dried under nitrogen, were reconstituted in the PAF assay kit buffer prior to analysis. The development, specificity, and sensitivity of this assay for the C16 and C18 forms of PAF have been previously documented (Smal et al. (1989) Molec. Immunol. 26:711-719; (1990) J. Molec. Recognition 3:169-173; (1990) J. Immunol. Methods 128:183-188; (1990) J. Reprod. Fert. 90:419-425). […] Iodinated samples were counted on a Beckman Gamma 5500 counter (Beckman Instruments, Fullerton, Calif.). The 3H-PAF (10 Ci/mmole) and ^125 I-PAF (2200 Ci/mmole) consisted of a 1:1 admixture of the C16 and Cla forms of PAF.
Alternatively, PAF that has previously associated with monocytes following initial secretion may be released again into the supernatant.

[4] = test system: von Willebrand factor and factor VIII; conditions: cited from earlier work
endothelial cells = conditions: direct DDAVP treatment; cited from earlier work
endothelial cells (ECs) [5] = assay: vWf release from ECs exposed to supernatants of DDAVP-treated monocytes (vWf releasing factor)
Description: Media with or without thrombin (@5 units/mL) served as positive and negative controls respectively. […] The EC conditioned media were recovered, centrifuged to remove any cell debris, and then frozen at -80° C. for a maximum period of 4 weeks prior to analyses. […] Where appropriate ECs were preincubated with BTP-dioxolane which was not cytotoxic to the cells as determined by the dye exclusion test.
as §3
Following centrifugation at 300×g for 15 minutes at 20° C., the top layer of plasma was recovered and respun at 2,000×g for 15 minutes to provide cell-free autologous plasma. The remaining plasma and buffy coat were resuspended, adjusted to 35 mL per 60 mL volume of whole blood with PBS (Dulbecco's phosphate buffered saline-Gibco BRL), and layered over 12 ml of Histopaque 1077 (Sigma). The MNC recovered by centrifugation at 300×g for 30 minutes were washed 3×in PBS+5% (v/v) fetal calf serum (FCS; Flow Laboratories, McLean, Va.). The cell concentration was adjusted to 5×10^6 /mL in RPMI+5% FCS and then added to the pretreated tissue culture plates described by Hashemi et al. (1990, supra).
The method of Freundlich and Avdolomic (1983, Use of Gelatin/Plasma Coated Flasks for Isolating Human Peripheral Blood Monocytes, J. Immunol. Methods, 62:31-37) as modified by Hashemi et al. (1990, supra) was used to purify monocytes from mononuclear cells. The mononuclear cell suspension (5×10^6 cells/mL) was incubated for 18-20 hours at 37° C. in a CO2 incubator. The monocytes were harvested with 10 mM EDTA (Gibco Laboratories) in RPMI+5% FCS and following centrifugation were washed 3×in media and resuspended in serum-free medium (DMEM/F12, Gibco) containing 1% Nutridoma-HU (Boehringer-Mannheim Canada, Laval, Quebec). The recovered cells met morphological criteria for monocytes and were 90% positive for monocyte CD14 surface marker determined by direct immunofluorescence using fluorescent conjugated anti-Leu-M3 (CD14) monoclonal antiserum (Becton-Dickinson, Mountain View, Calif.). Cell viability was greater than 90% as determined by trypan blue dye exclusion (Gibco). […] Cell suspensions were incubated in sterile Petri dishes, previously coated with 2% gelatin for 1 hour at 37° C., for 30-minutes or for 1, 2, 4, 6 and 24 hours. Monocyte-conditioned media were centrifuged at 2,000×g for 15 minutes and frozen at -80° C. prior to incubation with the EC monolayer cultures. For some experiments, conditioned media were lipid extracted as described prior to the PAF radioimmunoassay below. The dried extracts were reconstituted with fresh DMEM/F12+1% Nutridoma-HU media, briefly sonicated and added to EC cultures.

monocytes [6] = assay: Secretion of prostaglandins and adenine nucleotides from monocytes; type: cell-based, human; conditions: 100 ng DDAVP/mL, 30 min
Description: as §1

endothelial cells (ECs) [7] = assay: vWf release from ECs exposed directly to PAF or thrombin
Description: Synthetic PAF (1-O-alkyl-2-acetyl-sn-glyceryl-3-phosphorylcholine; Sigma #P-9525) prepared from bovine heart lecithin (Demopoulos et al. (1979) J. Biol. Chem. 254: 9355-358) was 99% pure by TLC analysis, HPLC analysis indicated this product consisted of 70% C16 and 13% C18 forms of PAF (Mita et al., (1989) Anal. Biochem. 180:131-135). After removal of chloroform, PAF was resuspended in DMEM/F12 culture medium containing 1% Nutridoma-HU (final protein concentration of 40 μM stock solution). After sonication for 3×1 minute periods, the PAF solution was diluted and used immediately.
Media with or without thrombin (@5 units/mL) served as positive and negative controls respectively. ECs were incubated for 1, 10, 20 or 30 minutes and 1, 2, 4, 6 and 24 hours in the PAF and thrombin time course studies. The EC conditioned media were recovered, centrifuged to remove any cell debris, and then frozen at -80° C. for a maximum period of 4 weeks prior to analyses. […] Where appropriate ECs were preincubated with BTP-dioxolane which was not cytotoxic to the cells as determined by the dye exclusion test.
as §3, §4
In order to examine the responsiveness of ECs to direct PAF exposure, we incubated the monolayers of ECs with 0-300 pico molar (pM) PAF for a period of 4 hours at 37° C. and determined the amount of vWf released into the EC media. […] To determine the time course of PAF effects on vWf release, 300 pM PAF was incubated with monolayers of ECs for 1, 10, 20 and 30 minutes as well as for 1, 2, 4, 6 and 24 hours. […] As a control, the vWf release from thrombin stimulated ECs was also determined (FIG. 5).

With `COc1cc([C@H]2OC[C@H](c3cc(OC)c(OC)c(OC)c3)O2)cc(OC)c1OC` (racemic) [BTP-dioxolane] the “cytotoxicity to ECs” value (ECs) was “not cytotoxic”, the “% Inhibition of vWf release” value (PAF receptor; supernatants from monocytes treated with 100 ng DDAVP/mL, P <0.001) was 82% and the “% Inhibition of vWf release” value (PAF receptor; supernatants from untreated monocytes (DDAVP 0 ng/mL), P <0.005) was 68%. For the same compound, the “% Inhibition of vWf release” value (PAF receptor; thrombin 5 U/mL, P <0.025) was 15%, the “inhibition of the PAF-dependent release of vWf” value (PAF receptor; preincubated 10 minutes with ECs, final concentration 10 μM) was “effective inhibition of the PAF-dependent release of vWf” and the inhibition at 10 µM (PAF receptor; read-out: % Inhibition of vWf release, 10 μM BTP-dioxolane, PAF 100 pM, P <0.001) was 74.7 ± 4%. It also gave an inhibition at 10 µM (PAF receptor; read-out: % Inhibition of vWf release, 10 μM BTP-dioxolane, PAF 300 pM, P <0.005) of 83.2 ± 11%, an inhibition at 10 µM (PAF receptor; read-out: % Inhibition of vWf release, 10 μM BTP-dioxolane, supernatants from monocytes treated with 100 ng DDAVP/mL, P <0.001) of 81.8 ± 7% and an inhibition at 10 µM (PAF receptor; read-out: % Inhibition of vWf release, 10 μM BTP-dioxolane, supernatants from untreated monocytes (DDAVP 0 ng/mL), P <0.005) of 68.4 ± 10.4%. The inhibition at 10 µM (PAF receptor; read-out: % Inhibition of vWf release, 10 μM BTP-dioxolane, thrombin 5 U/mL, P <0.025) was 14.7 ± 4% and the inhibition at 10 µM (PAF receptor; read-out: inhibition of the effects of PAF on vWf release from ECs, BTP-dioxolane 10 μM, 100 pM or 300 pM PAF) was 75 to 83%.
Work on `NC(=O)CC[C@@H]1NC(=O)[C@H](Cc2ccccc2)NC(=O)[C@H](Cc2ccc(O)cc2)NC(=O)CCSSC[C@@H](C(=O)N2CCC[C@H]2C(=O)N[C@H](CCCN=C(N)N)C(=O)NCC(N)=O)NC(=O)[C@H](CC(N)=O)NC1=O` [DDAVP, 1-deamino-8-D-arginine vasopressin] yielded a TNF-α secreted (monocytes [1]; n=6, N.S. vs 0 ng/mL: 4 ± 3) of 0 ± 0 pg/mL, an IL-6 secreted (monocytes [1]; n=6, N.S. vs 0 ng/mL: 23 ± 9) of 26 ± 2 pg/mL and an IL-1β secreted (monocytes [1]; n=6, N.S. vs 0 ng/mL: 319 ± 118) of 271 ± 93 pg/mL. For the same compound, the IL-8 secreted (monocytes [1]; n=12, N.S. vs 0 ng/mL: 690 ± 257) was 639 ± 214 pg/mL, the “increase in PGI2 release from ECs” value (endothelial cells (ECs) [2]; DDAVP-treated compared to untreated monocyte supernatants, P<0.05) was 60% and the “PGI2 release from ECs” value (endothelial cells (ECs) [2]; supernatants from DDAVP-treated monocytes, cf. 332±107 untreated, corrected for PGI2 in supernatants) was 538 ± 136 pg/mL. For the same compound, the “time course of PAF in monocyte supernatants” value (monocytes [3]; 100 ng DDAVP/mL vs unstimulated, at any point in time, 30 min to 24 h, FIG. 7A) was “higher levels of PAF present in post-DDAVP monocyte supernatants”, the “time course of PAF secretion from monocytes” value (shortened to “time course of PAF secretion”) (monocytes [3]; 100 ng DDAVP/mL, 2-4 hours, FIG. 7A) was “declined sharply” and the “time course of PAF secretion” value (monocytes [3]; 100 ng DDAVP/mL, 6 hours, FIG. 7A) was “increased again”. The “time course of PAF secretion” value (monocytes [3]; 100 ng DDAVP/mL, 24 hours, FIG. 7A) was “still elevated”, the “DDAVP concentration of maximum PAF secretion from monocytes” value (monocytes [3]; 30 minutes exposure, (169 nM)) was 200 ng DDAVP/mL and the “ED50 for PAF secretion from monocytes” value (monocytes [3]; 30 minutes, estimated) was 85 ng DDAVP/mL. For the same compound, the “PAF release from monocytes” value (monocytes [3]; FIG. 1B, 100 ng DDAVP/mL, 30 min, cf. 94 pM untreated, P<0.001) was 284 pM, the “maximum PAF secretion from monocytes” value (monocytes [3]; at 200 ng DDAVP/mL (169 nM), 30 minutes) was 480 fmol/mL and the “plasma concentration of von Willebrand factor and factor VIII in vivo” value ([4]; Mannucci et al.) was “causes an increase in the plasma concentration”. The “plasma concentration of von Willebrand factor and factor VIII” value ([4]; patients with mild or moderate haemophilia A or von Willebrand disease and normal individuals) was “increase the plasma concentration”, the “secretion of vWf by endothelial cells in vitro” value (endothelial cells) was “no increased secretion of vWf” and the “vWf release from ECs” value (endothelial cells (ECs) [5]; FIG. 1A, supernatants from monocytes with 100 ng DDAVP/mL 30 min, ECs 4 hours, n=26, cf. 104% untreated, P<0.001) was 186%. For the same compound, the “enhancement of vWf release from ECs by lipid extracts of supernatants” value (endothelial cells (ECs) [5]; FIG. 3, DDAVP-treated monocytes (100 ng/mL), reconstituted lipid extract, n=7, cf. 71% untreated, P<0.05) was 195%, the “vWf releasing factor (%)” value (endothelial cells (ECs) [5]; Table 1, IL-1β to G-CSF set, monocytes with 100 ng DDAVP/mL 30 min, ECs 4 hours, n=6, P <0.05 vs 0 ng/mL: 131 ± 15) was 234 ± 35% and the “vWf releasing factor (%)” value (endothelial cells (ECs) [5]; Table 1, IL-8 set, 100 ng DDAVP/mL 30 min, ECs 4 hours, n=12, P <0.05 vs 0 ng/mL: 147 ± 29) was 291 ± 58%. The “vWf releasing factor (%)” value (endothelial cells (ECs) [5]; Table 2, ATP/ADP set, 100 ng DDAVP/mL 30 min, ECs 4 hours, n=6, P <0.025 vs 0 ng/mL: 99 ± 17) was 211 ± 33%, the “vWf releasing factor (%)” value (endothelial cells (ECs) [5]; Table 2, PGE2/PGF2α set, 100 ng DDAVP/mL 30 min, ECs 4 hours, n=10, P <0.01 vs 0 ng/mL: 122 ± 16) was 307 ± 62% and the “vWf releasing factor (%)” value (endothelial cells (ECs) [5]; Table 2, PGI2 set, 100 ng DDAVP/mL 30 min, ECs 4 hours, n=9, P <0.05 vs 0 ng/mL: 153 ± 35) was 347 ± 66%. The “time course of vWf release from ECs” value (endothelial cells (ECs) [5]; supernatants from DDAVP-stimulated vs unstimulated monocytes, except at 2 hours, FIG. 7B) was “consistently higher levels of vWf released”, the “DDAVP concentration of maximum vWf release from ECs” value (endothelial cells (ECs) [5]; supernatants from DDAVP-treated monocytes, ECs 4 hours) was 100 ng DDAVP/mL and the “ED50 for vWf release from ECs” value (endothelial cells (ECs) [5]; supernatants from DDAVP-treated monocytes, ECs 4 hours, estimated) was 45 ng DDAVP/mL. For the same compound, the “Increase in vWf release (%), BTP-dioxolane absent” value (endothelial cells (ECs) [5]; supernatants from monocytes treated with 100 ng DDAVP/mL 30 min, ECs 4 hours, n=5, 0 ng/mL: 92.6 ± 14.7%) was 197.2 ± 22.8%, the “vWf release from ECs, dose response” value (endothelial cells (ECs) [5]; supernatants from monocytes with 10-800 ng DDAVP/mL, ECs 4 hours at 37° C.) was “significant increases in vWf release were observed at all concentrations tested” and the “effect on secretion of PGE2, PGF2a, PGI2, ATP or ADP from monocytes” value (monocytes [6]) was “no significant effect”. For the same compound, the ADP secreted (monocytes [6]; n=5, N.S. vs 0 ng/mL: 16.8 ± 5.5) was 17.6 ± 12.2 nM, the PGF2α secreted (monocytes [6]; n=5, N.S. vs 0 ng/mL: 333 ± 116) was 406 ± 124 pg/mL and the ATP secreted (monocytes [6]; n=6, N.S. vs 0 ng/mL: 10.3 ± 6.6) was 7.4 ± 4.4 nM. For the same compound, the PGI2 secreted (monocytes [6]; n=9, N.S. vs 0 ng/mL: 106 ± 17) was 107 ± 18 pg/mL and the PGE2 secreted (monocytes [6]; n=10, N.S. vs 0 ng/mL: 3.61 ± 0.80) was 4.37 ± 1.70 pg/mL.
For Thrombin, the “Increase in vWf release (%), BTP-dioxolane absent” value (endothelial cells (ECs) [7]; thrombin 5 U/mL, 4 hours, n=5) was 123.5 ± 11.3%, the “vWf release from ECs (optimal effect)” value (endothelial cells (ECs) [7]; thrombin (5 units/mL), 10 minutes, P<0.001) was 368% and the “vWf release from ECs” value (endothelial cells (ECs) [7]; thrombin (5 units/mL), 30 minutes) was 261%. For the same compound, the “vWf release from ECs” value (endothelial cells (ECs) [7]; thrombin (5 units/mL), 1 hour) was 137% and the “vWf release from ECs” value (endothelial cells (ECs) [7]; thrombin (5 units/mL), 24 hours) was 88%.
